Like-named read-outs stand apart in the source and are kept apart here.

One series is described as follows: Population PK. In kind it is in vivo, human.
A further series in a line: Exposure-safety analysis. In kind it is in vivo, human. Particulars: logistic regression.
The conditions of series [1]: legacy popPK analysis ref 20; cited from earlier work.
The conditions of series [2]: MURANO popPK evaluation ref 24; cited from earlier work.

With `CC1(C)CCC(CN2CCN(c3ccc(C(=O)NS(=O)(=O)c4ccc(NCC5CCOCC5)c([N+](=O)[O-])c4)c(Oc4cnc5[nH]ccc5c4)c3)CC2)=C(c2ccc(Cl)cc2)C1` [venetoclax], the “rituximab co-administration effect: increase in CL/F” value in “Population PK” (current analysis) is 7%; in series [1], 22%. The “increase in F1” value in the series “Population PK” (dose decrease from 400 to 200 mg) was found to be 11.0%; in “Population PK” (high-fat meal relative to low-fat), 44.3%; in “Population PK” (meal-fed state without specification of fat content), 28.9%; in “Population PK” (moderate-fat meal relative to low-fat), 40.4%. For the same molecule, the results for the “decrease in F1” value in “Population PK” (dose increase from 400 to 800 mg) and in “Population PK” (fasting state relative to low-fat state) were 9.9% and 66.2%, respectively. The V2/F lower in the series “Population PK” (females than males) is recorded as 29.7%. Besides, the “effect of obinutuzumab co-administration on CL/F and F1” value in the series “Population PK” (forward addition covariate testing) is recorded as “no effect”. The “relationship between CL/F and body weight, age, gender, mild or moderate hepatic or renal impairment, CrCL, bilirubin, ALT, AST, albumin, P-glycoprotein or weak CYP3A inhibitors” value in “Population PK” (human, in vivo) is “no relationship was observed”. Besides, in “Population PK” (patients compared with healthy individuals), the V2/F higher is on record as 73.3%. In addition, the “decrease in CL/F” value in “Population PK” (with OATP1B3 hepatic uptake transporter inhibitors) is on record as 13.6%; in “Population PK” (with moderate CYP3A inhibitors) it was 13.9%; in the series “Population PK” (with strong CYP3A inhibitors), 82.2%. Besides, the “p value, association of CmeanSS,nominal with probability of SAEs” value in “Exposure-safety analysis” was 0.214. Also, the “p value, association of CmeanSS,nominal with probability of grade ≥ 3 infections” value in the series “Exposure-safety analysis” stood at 0.149. Also, in series [2], the “rituximab co-administration effect: decrease in CL/F” value is 7%.

Values taken from publication PMC9309146 (Advances in Therapy, 2022).
